This is an account of results in the supplement of paper PMC11208160.

The nature of this data set: recombinant barcode read abundance after kanamycin selection (control-corrected) (log10(CPM+1)); higher = more efficient recombination; sequences stand for … in AGTGCAGAGAAAATCGGCCAGTTTTCTCTGCCTGCAGTCCGCATGCCGT…AGATTTATGCAGCGGACTGCCTTTCTCCCAAAGTGATAAACCGGACAGTATCATGGACCGGTTTTCCCGGTAATCCGTATTTGCAAGGTTGGTTTCACT; site = the 11-nt target. In outline:
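Targets and IS621 bridge RNA target-binding loops were paired in oligos, each with a promoter, a barcode and the J23119-driven first 104 bridge RNA bases. A vector carrying the remaining 73 bp and a T7-inducible recombinase received these by Gibson cloning, and the pool was co-electroporated into E. coli with a donor plasmid. Duplicate plates contained chloramphenicol/ampicillin LB agar (control) or chloramphenicol/ampicillin/kanamycin with 0.1 mM IPTG. Recombination efficiency comes from averaged, control-corrected counts per million of recombinant-junction barcodes, reported as log10(CPM+1).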
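Also: IS621 recombinase and bridge RNA in Escherichia coli cells.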

In the case of “CGAGAGACTTGGGTTCTAACCTGTTGCTT (site CAAGAGTCTAA)”, the “recombinant barcode read abundance (log10)” value worked out at 0.0807. To “CGAGAGACTTGGGTTCTAACCTGTTGCTT (site CGAGAGACTAA)” belongs 0.994.

Regarding “CGAGAGTCTTGGGTTCTAACCTGTTGCGG (site AGAGAGGCTCC)”, the “recombinant barcode read abundance (log10)” value amounted to 0.119. To “CGAGAGTCTTGGGTTCTAACCTGTTGCGG (site CGAGAGTCTCC)” belongs 1.31; to “CGAGATTCTTGGGTTCTAACCTGTTGCCT (site CAAGATTCTAG)”, 0.331. To “CGAGATTCTTGGGTTCTAACCTGTTGCCT (site CCAGATTCTAG)” belongs 0.271. To “CGAGATTCTTGGGTTCTAACCTGTTGCCT (site CGAGATTCTAG)” belongs 0.755; to “CGAGATTCTTGGGTTCTAACCTGTTGCCT (site CTAGATTCTAG)”, 0.332; to “CGAGCTCCTTGGGTTCTAACCTGTTGCGT (site CGAGCTCCTAA)”, 0.0215.

Take “CGAGCTCCTTGGGTTCTAACCTGTTGCGT (site CGAGCTCCTAC)”: the “recombinant barcode read abundance (log10)” value is 2.04. To “CGAGCTCCTTGGGTTCTAACCTGTTGCGT (site CGAGCTCCTAG)” belongs 0.813; to “CGAGCTCCTTGGGTTCTAACCTGTTGCGT (site CGAGCTCCTAT)”, 0.766. To “CGAGGACCTTGGGTTCTAACCTGTTGCCT (site CCAGGACCTAG)” belongs 0.729; to “CGAGGACCTTGGGTTCTAACCTGTTGCCT (site CGAGGACCTAG)”, 2.3; to “CGAGGGACTTGGGTTCTAACCTGTTGCCT (site CGAGGGACTAG)”, 1.81. To “CGAGGGACTTGGGTTCTAACCTGTTGCCT (site CGAGGGCCTAG)” belongs 0.0632; to “CGAGGGACTTGGGTTCTAACCTGTTGCCT (site CGAGGGGCTAG)”, 0.807.

Turning to “CGAGGGACTTGGGTTCTAACCTGTTGCCT (site CGAGGGTCTAG)”, the “recombinant barcode read abundance (log10)” value was 0.056. Turning to “CGAGGGCCTTGGGTTCTAACCTGTTGCCT (site CGAGGGACTAG)”, the “recombinant barcode read abundance (log10)” value stood at 0.049. To “CGAGGGCCTTGGGTTCTAACCTGTTGCCT (site CGAGGGCCTAG)” belongs 0.603; to “CGAGGGCCTTGGGTTCTAACCTGTTGCCT (site CGAGGGGCTAG)”, 0.0635; to “CGAGGGCCTTGGGTTCTAACCTGTTGCCT (site CGAGGGTCTAG)”, 0.345.

Take “CGAGTGACTTGGGTTCTAACCTGTTGCAG (site ATTAACTCTAG)”: the “recombinant barcode read abundance (log10)” value was 0.0869. To “CGAGTGACTTGGGTTCTAACCTGTTGCAG (site CGAGTGACTCT)” belongs 1.32; to “CGATGGACTTGGGTTCTAACCTGTTGCCG (site CAATGGGCTCG)”, 0.102; to “CGATGGACTTGGGTTCTAACCTGTTGCCG (site CGATGGACTCG)”, 0.956.

As to “CGATGTCCTTGGGTTCTAACCTGTTGCCT (site CGATGTCCTAG)”, the “recombinant barcode read abundance (log10)” value worked out at 0.864. To “CGATGTCCTTGGGTTCTAACCTGTTGCCT (site CGATGTGCTAG)” belongs 0.039; to “CGATTACCTTGGGTTCTAACCTGTTGCCT (site CGATTAACTAG)”, 0.0753. To “CGATTACCTTGGGTTCTAACCTGTTGCCT (site CGATTACCTAG)” belongs 0.264; to “CGATTACCTTGGGTTCTAACCTGTTGCCT (site CGATTAGCTAG)”, 0.38. To “CGATTACCTTGGGTTCTAACCTGTTGCCT (site CGATTATCTAG)” belongs 0.11; to “CGATTAGCTTGGGTTCTAACCTGTTGCCT (site CGATTAACTAG)”, 0.161.

On to “CGATTAGCTTGGGTTCTAACCTGTTGCCT (site CGATTACCTAG)”, for which the “recombinant barcode read abundance (log10)” value amounted to 0.038. For the sequence “CGATTAGCTTGGGTTCTAACCTGTTGCCT (site CGATTAGCTAG)”, the “recombinant barcode read abundance (log10)” value stood at 0.169. To “CGATTAGCTTGGGTTCTAACCTGTTGCCT (site CGATTATCTAG)” belongs 0.186; to “CGCACGTCTTGGGTTCTAACCTGTTGCTT (site CACAAGTCTAA)”, 0.185; to “CGCACGTCTTGGGTTCTAACCTGTTGCTT (site CGCACGTCTAA)”, 0.0911.

For the sequence “CGCCACACTTGGGTTCTAACCTGTTGCCT (site CGACACACTAG)”, the “recombinant barcode read abundance (log10)” value was 0.426. For “CGCCACACTTGGGTTCTAACCTGTTGCCT (site CGCCACACTAG)”, the “recombinant barcode read abundance (log10)” value stood at 0.296. With “CGCCACACTTGGGTTCTAACCTGTTGCCT (site CGGCACACTAG)”, the “recombinant barcode read abundance (log10)” value was 0.689. To “CGCCACACTTGGGTTCTAACCTGTTGCCT (site CGTCACACTAG)” belongs 1.22. Consider “CGCCGAACTTGGGTTCTAACCTGTTGCCT (site AGCCGAACTAG)”, for which the “recombinant barcode read abundance (log10)” value was found to be 0.0619. To “CGCCGAACTTGGGTTCTAACCTGTTGCCT (site CGCCGAACTAG)” belongs 0.0225; to “CGCCGAACTTGGGTTCTAACCTGTTGCCT (site GGCCGAACTAG)”, 0.339. To “CGCCGAACTTGGGTTCTAACCTGTTGCCT (site TGCCGAACTAG)” belongs 0.0386; to “CGCCTGCCTTGGGTTCTAACCTGTTGCCT (site CGCCAGCCTAG)”, 0.119. To “CGCCTGCCTTGGGTTCTAACCTGTTGCCT (site CGCCTGCCTAG)” belongs 0.113; to “CGCCTTCCTTGGGTTCTAACCTGTTGCAT (site CGCCATCCTAT)”, 0.121. For “CGCCTTCCTTGGGTTCTAACCTGTTGCAT (site CGCCCTCCTAT)”, the “recombinant barcode read abundance (log10)” value amounted to 0.157. For “CGCCTTCCTTGGGTTCTAACCTGTTGCAT (site CGCCGTCCTAT)”, the “recombinant barcode read abundance (log10)” value was found to be 0.0857. With “CGCCTTCCTTGGGTTCTAACCTGTTGCAT (site CGCCTTCCTAT)”, the “recombinant barcode read abundance (log10)” value worked out at 0.0767.

Turning to “CGCGCAGCTTGGGTTCTAACCTGTTGCCT (site CGAGCAGCTAG)”, the “recombinant barcode read abundance (log10)” value worked out at 0.382. To “CGCGCAGCTTGGGTTCTAACCTGTTGCCT (site CGCGCAGCTAG)” belongs 0.267; to “CGCGCAGCTTGGGTTCTAACCTGTTGCCT (site CGGGCAGCTAG)”, 0.135. Consider “CGCGCAGCTTGGGTTCTAACCTGTTGCCT (site CGTGCAGCTAG)”, for which the “recombinant barcode read abundance (log10)” value amounted to 0.416. With “CGCGTAACTTGGGTTCTAACCTGTTGCCT (site CGCGCAACTAG)”, the “recombinant barcode read abundance (log10)” value was 0.112. To “CGCGTAACTTGGGTTCTAACCTGTTGCCT (site CGCGTAACTAG)” belongs 0.123; to “CGCTCCTCTTGGGTTCTAACCTGTTGCAT (site CGCTCCTCTAT)”, 0. To “CGCTCCTCTTGGGTTCTAACCTGTTGCAT (site GCTCGACCTCA)” belongs 0.177; to “CGCTCCTCTTGGGTTCTAACCTGTTGCCT (site AGCTCCTCTAG)”, 0.0659.

Take “CGCTCCTCTTGGGTTCTAACCTGTTGCCT (site CGCTCCTCTAG)”: the “recombinant barcode read abundance (log10)” value stood at 0.027.

As to “CGCTCCTCTTGGGTTCTAACCTGTTGCCT (site GGCTCCTCTAG)”, the “recombinant barcode read abundance (log10)” value was 0.0456. Regarding “CGCTCCTCTTGGGTTCTAACCTGTTGCCT (site TGCTCCTCTAG)”, the “recombinant barcode read abundance (log10)” value turned out to be 0.103. Take “CGCTGACCTTGGGTTCTAACCTGTTGCCT (site CGCTGACCTAG)”: the “recombinant barcode read abundance (log10)” value turned out to be 0.0666. To “CGCTGACCTTGGGTTCTAACCTGTTGCCT (site GCAACCTCTTA)” belongs 0.11. Turning to “CGCTGATCTTGGGTTCTAACCTGTTGCCT (site AGCTGATCTAG)”, the “recombinant barcode read abundance (log10)” value is 0.0494. To “CGCTGATCTTGGGTTCTAACCTGTTGCCT (site CGCTGATCTAG)” belongs 0.0169; to “CGCTGATCTTGGGTTCTAACCTGTTGCCT (site GGCTGATCTAG)”, 0.14.

Consider “CGCTGATCTTGGGTTCTAACCTGTTGCCT (site TGCTGATCTAG)”, for which the “recombinant barcode read abundance (log10)” value amounted to 0.0802. To “CGCTGCCCTTGGGTTCTAACCTGTTGCTT (site CGCTGACCTAA)” belongs 0.102; to “CGCTGCCCTTGGGTTCTAACCTGTTGCTT (site CGCTGCCCTAA)”, 0.113. For the sequence “CGCTGCCCTTGGGTTCTAACCTGTTGCTT (site CGCTGGCCTAA)”, the “recombinant barcode read abundance (log10)” value turned out to be 0.0609. To “CGCTGCCCTTGGGTTCTAACCTGTTGCTT (site CGCTGTCCTAA)” belongs 0.512; to “CGCTGGACTTGGGTTCTAACCTGTTGCCT (site CGCTAGACTAG)”, 0.0452. To “CGCTGGACTTGGGTTCTAACCTGTTGCCT (site CGCTCGACTAG)” belongs 0.0114; to “CGCTGGACTTGGGTTCTAACCTGTTGCCT (site CGCTGGACTAG)”, 0.158.
